From US20080085884A1, “Melanin Concentrating Hormone Receptor-1 Antagonist Pyridinones” (Pfizer Inc, priority 2006, published 2008)

Target: T1, human MCHR1 (Homo sapiens, UniProt Q99705)
T1 construct: host or cells: CHO
Test: Cyclic AMP assay (MCHR-1 functional antagonism)
Assay type: cell-based
Details: CHO cells stably expressing human MCHR1; cAMP accumulation with 25 uM forskolin and 0.2 nM MCH, 90 min; Ki from IC50 by Cheng-Prusoff; read-out: MCHR-1 functional Ki
Procedure: CHO cell lines stably expressing the human MCHR1 (Euroscreen, Brussels, Belgium) were maintained in DMEM containing Glutamax (Invitrogen, Carlsbad, Calif.), 10% FBS, 400 ug/ml Geneticin.
Cyclic AMP assays. CHO cells stably expressing the human MCHR1 receptors were collected and resuspended at a density of 4.0×10^6 cells/ml in F12 (Hams) media and seeded (20,000 cells per well) into 384-well, solid white Greiner assay plates. […] Cells were incubated at 37° C./5% CO2 for 90 minutes and cAMP accumulation subsequently determined by DiscoveRx Hithunter c-AMP II Assay kit (GE Healthcare, Buckinghamshire, UK) in accordance with manufactures instructions. Luminescence was measured on a LEADseaker imaging system (GE Healthcare, Buckinghamshire, UK). IC50 values were calculated from dose-response data fit using an in-house computer graphics and statistics program.

T1 sequence (Q99705 whole entry): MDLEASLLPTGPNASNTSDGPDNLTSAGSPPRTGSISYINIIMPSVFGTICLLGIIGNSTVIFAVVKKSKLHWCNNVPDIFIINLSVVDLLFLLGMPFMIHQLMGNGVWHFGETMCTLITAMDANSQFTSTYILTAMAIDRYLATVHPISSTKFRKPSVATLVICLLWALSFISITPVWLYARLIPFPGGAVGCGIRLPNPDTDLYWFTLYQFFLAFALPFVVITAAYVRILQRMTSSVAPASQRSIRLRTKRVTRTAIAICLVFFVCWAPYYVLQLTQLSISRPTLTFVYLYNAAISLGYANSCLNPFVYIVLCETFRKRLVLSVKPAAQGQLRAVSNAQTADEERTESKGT

SMILES | Ki [nM]
CCOC(=O)N[C@H]1CCN(c2ccc(-n3ccc(OCc4ccccc4)cc3=O)cn2)C1 [Example 176] | 29.9
CCC(=O)N[C@@H]1CCN(c2ccc(-n3ccc(OCc4ccccc4)cc3=O)cn2)C1 [Example 196] | 605
O=c1cc(OCc2ccc(Cl)c(Cl)c2)ccn1-c1ccc(N2CC[C@@H](O)C2)nc1 [Example 204] | 330
O=c1cc(OCc2cccc(Cl)c2Cl)ccn1-c1ccc(N2CC[C@@H](O)C2)nc1 [Example 205] | 498
O=c1cc(OCc2ccc(F)c(Cl)c2)ccn1-c1ccc(N2CC[C@@H](O)C2)nc1 [Example 206] | 250
O=c1cc(OCc2ccc(F)cc2)ccn1-c1ccc(N2C[C@@H]3CN(C4CCC4)C[C@@H]3C2)nc1 [Example 208] | 2.72
CC(C)N1C[C@H]2CN(c3ccc(-n4ccc(OCc5ccccc5)cc4=O)cn3)C[C@H]2C1 [Example 209] | 10.6
O=c1cc(OCc2ccccc2)ccn1-c1ccc(N2C[C@@H]3CN(C4CCC4)C[C@@H]3C2)nc1 [Example 210] | 4.56
NC1CCN(c2ccc(-n3ccc(OCc4ccccc4)cc3=O)cn2)CC1 [Example 214] | 106
O=c1cc(OCc2ccccc2)ccn1-c1ccc(N2CCCNCC2)nc1 [Example 216] | 78
N[C@@H]1[C@H]2CN(c3ccc(-n4ccc(OCc5ccccc5)cc4=O)cn3)C[C@@H]12 [Example 217] | 11
O=c1cc(OCc2ccccc2)ccn1-c1ccc(N2CCC3(CCNC3)C2)nc1 (stereo not drawn) [Example 219] | 8.45
O=c1cc(OCc2ccccc2)ccn1-c1ccc(N2CC3CCC(C2)N3)nc1 [Example 220] | 513
CC(C)C1CN(c2ccc(-n3ccc(OCc4ccccc4)cc3=O)cn2)CCN1 (stereo not drawn) [Example 221] | 126
CC(C)CC1CN(c2ccc(-n3ccc(OCc4ccccc4)cc3=O)cn2)CCN1 (stereo not drawn) [Example 222] | 680
CCC1CN(c2ccc(-n3ccc(OCc4ccccc4)cc3=O)cn2)CCN1 (stereo not drawn) [Example 223] | 197
CNC1CCN(c2ccc(-n3ccc(OCc4ccccc4)cc3=O)cn2)CC1 [Example 230] | 69.8
O=c1cc(OCc2ccccc2)ccn1-c1ccc(N2C[C@H]3C[C@@H]2CN3)nc1 [Example 231] | 752
NC1CN(c2ccc(-n3ccc(OCc4ccccc4)cc3=O)cn2)C1 [Example 232] | 238
COCC1CCCN(c2ccc(-n3ccc(OCc4ccccc4)cc3=O)cn2)CC1 (stereo not drawn) [Example 233] | 17.6
CN(C)C1CN(c2ccc(-n3ccc(OCc4ccccc4)cc3=O)cn2)C1 [Example 239] | 41.2
CC1(O)CCN(c2ccc(-n3ccc(OCc4ccccc4)cc3=O)cn2)C1 (stereo not drawn) [Example 240] | 77.5

Continued, values first:

Ki [nM] | SMILES
11 | CC(=O)N(C)[C@@H]1CCN(c2ccc(-n3ccc(OCc4ccc(Cl)cc4)cc3=O)cn2)C1 [Example 172]
13.1 | CC(=O)N(C)[C@H]1CCN(c2ccc(-n3ccc(OCc4ccc(Cl)cc4)cc3=O)cn2)C1 [Example 173]
26.2 | CC(=O)N[C@H]1CCN(c2ccc(-n3ccc(OCc4ccc(Cl)cc4)cc3=O)cn2)C1 [Example 174]
58.5 | CC(=O)N[C@@H]1CCN(c2ccc(-n3ccc(OCc4ccc(Cl)cc4)cc3=O)cn2)C1 [Example 175]
19.3 | CCN(C(=O)OC)[C@H]1CCN(c2ccc(-n3ccc(OCc4ccccc4)cc3=O)cn2)C1 [Example 177]
19.2 | CCN(C(=O)OC)[C@@H]1CCN(c2ccc(-n3ccc(OCc4ccccc4)cc3=O)cn2)C1 [Example 178]
18.9 | COC(=O)N(C)[C@@H]1CCN(c2ccc(-n3ccc(OCc4ccc(F)cc4)cc3=O)cn2)C1 [Example 179]
22.2 | COC(=O)N(C)[C@H]1CCN(c2ccc(-n3ccc(OCc4ccc(F)cc4)cc3=O)cn2)C1 [Example 180]
10.9 | COC(=O)N(C)[C@H]1CCN(c2ccc(-n3ccc(OCc4ccccc4)cc3=O)cn2)C1 [Example 181]
29.8 | COC(=O)N[C@H]1CCN(c2ccc(-n3ccc(OCc4ccc(F)cc4)cc3=O)cn2)C1 [Example 186]
24.1 | COC(=O)N(C)[C@@H]1CCN(c2ccc(-n3ccc(OCc4ccccc4)cc3=O)cn2)C1 [Example 187]
218 | COC(=O)N[C@@H]1CCN(c2ccc(-n3ccc(OCc4ccccc4)cc3=O)cn2)C1 [Example 188]
144 | COC(=O)N[C@@H]1CCN(c2ccc(-n3ccc(OCc4ccc(F)cc4)cc3=O)cn2)C1 [Example 192]
196 | COC(=O)NC1CN(c2ccc(-n3ccc(OCc4ccc(F)cc4)cc3=O)cn2)C1 [Example 193]
46.6 | COC(=O)N[C@H]1CCN(c2ccc(-n3ccc(OCc4ccc(Cl)cc4)cc3=O)cn2)C1 [Example 194]
31.3 | COC(=O)N1C[C@@H]2CN(c3ccc(-n4ccc(OCc5ccc(F)cc5)cc4=O)cn3)C[C@@H]2C1 [Example 195]
7.7 | CN(C(=O)OC(C)(C)C)[C@@H]1CCN(c2ccc(-n3ccc(OCc4ccc(Cl)cc4)cc3=O)cn2)C1 [Example 197]
10.6 | CN(C(=O)OC(C)(C)C)[C@H]1CCN(c2ccc(-n3ccc(OCc4ccc(Cl)cc4)cc3=O)cn2)C1 [Example 198]
6.51 | CC(C)N1C[C@H]2CN(c3ccc(-n4ccc(OCc5ccc(F)cc5)cc4=O)cn3)C[C@H]2C1 [Example 207]
10.9 | CO[C@@H]1CCN(c2ccc(-n3ccc(OCc4ccccc4)cc3=O)cn2)C1 [Example 235]
